In paper PMC5943930, “Identification of Inhibitors Targeting Ferredoxin-NADP^+ Reductase from the Xanthomonas citri subsp. citri Phytopathogenic Bacteria” (Molecules : A Journal of Synthetic Chemistry and Natural …, 2017):
Like-named read-outs stand apart in the source and are kept apart here.

Assays:
[1] = system: Xcc; test: Xcc growth/viability in liquid SB medium (colony-forming capacity); assay type: cell-based, Xanthomonas citri subsp. citri; conditions: 1 mM compound, 28 °C, 0–6 h, control 2% DMSO
Description: (§1) To evaluate the sensitivity of Xcc to C5, C12, C17 and C19, 100 µL of a bacterial suspension (containing ~10^9 cells mL^−1) were mixed with 4 mL of SB medium (5 g L^−1 sucrose, 5 g L^−1 yeast extract, 5 g L^−1 peptone, and 1 g L^−1 glutamic acid, pH 7.0) and 0.7% (w v^−1) molten agar and poured onto SB-1.5% (w v^−1) agar plates supplemented with 25 µg mL^−1 ampicillin. After hardening, 2 µL of a 10, 100 and 1000 µM solution of each compound were added onto the agar surface. The zones of growth inhibition were photographed after incubation for 24 h at 28 °C. To assess the compound inhibition effect on Xcc growth in liquid medium, overnight cultures were subcultured into fresh SB medium at 2% inoculums and grown for 6 h in the presence of 1 mM C12. Samples were removed at 0, 2, 4 and 6 h, serially diluted and plated on SB-1.5% (w v^−1) agar. Colonies were counted after 48 h of incubation at 28 °C.

[2] = system: Xcc; test: Xcc growth inhibition on SB-agar plates; assay type: cell-based, Xanthomonas citri subsp. citri; conditions: 24 h at 28 °C
Description: as §1

[3] = target: T1, XccFPR (Xanthomonas citri pv. citri, UniProt A0AAI7ZED9); test: Inhibition constants and mechanisms, XccFPR diaphorase activity as a function of NADPH at increasing inhibitor concentrations; assay type: biochemical, Xanthomonas citri subsp. citri; conditions: 25 °C, 50 mM Tris/HCl, 2% DMSO, pH 8.0; for Ki: global fit to Lineweaver–Burk inhibition model; for Inhibition Mechanism: versus NADPH
T1 sequence (A0AAI7ZED9 1-259): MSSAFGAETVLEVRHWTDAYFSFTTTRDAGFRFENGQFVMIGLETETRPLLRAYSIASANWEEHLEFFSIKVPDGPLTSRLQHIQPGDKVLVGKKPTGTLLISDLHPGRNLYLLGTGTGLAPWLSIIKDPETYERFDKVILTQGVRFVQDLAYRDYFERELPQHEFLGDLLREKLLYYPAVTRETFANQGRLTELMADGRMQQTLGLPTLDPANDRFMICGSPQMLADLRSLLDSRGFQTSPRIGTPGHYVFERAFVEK
Description: (§2) When assayed in regular cuvettes, the DCPIP diaphorase activity of XccFPR was determined at 25 °C using a Cary 100 (Agilent Technologies Inc., Santa Clara, CA, USA) spectrophotometer as previously established. […] Positive controls (without any hit compound) were included in every reaction set. […] The DMSO concentration was kept at 2% in all samples. All kinetic experiments were performed in triplicate. The effect of the inhibitors on Km and kcat was determined by fitting the datasets to the Michaelis-Menten model. Additionally, data were globally fit to either Lineweaver-Burk equations for uncompetitive or non-competitive inhibition, yielding Ki for each compound (Equations (1) and (2), respectively).
(1) [e]/V0=(1+[I]/K^′i)/kcat+Km/kcat·1/[S]
(2) [e]/V0=(1+[I]/Ki)/kcat+(1+[I]/Ki)·Km/kcat·1/[S]

[4] = target: T1, XccFPR; test: NADPH-dependent DCPIP diaphorase activity of XccFPR, dose-response of inhibitors; assay type: biochemical, Xanthomonas citri subsp. citri; conditions: for inhibitory effect on XccFPR (in words): C12 derived compounds D1–D8
Description: as §2

[5] = target: T2, AnFNR (Nostoc sp., UniProt P21890); test: NADPH-dependent DCPIP diaphorase activity of AnFNR, dose-response of inhibitors; assay type: biochemical, Anabaena PCC 7119; conditions: 95 µM DCPIP, 50 μM NADPH; for IC50 / ICmax (concentration causing maximal inhibition): 25 °C, 2% DMSO, pH 8.0, 4 nM AnFNR; for IC50: 50 mM Tris/HCl, compound 0–800 μM; for % Inhibition at ICmax: 4 nM AnFNR
T2 construct: made in house; host or cells: Escherichia coli
T2 sequence (P21890 138-440 limits assumed): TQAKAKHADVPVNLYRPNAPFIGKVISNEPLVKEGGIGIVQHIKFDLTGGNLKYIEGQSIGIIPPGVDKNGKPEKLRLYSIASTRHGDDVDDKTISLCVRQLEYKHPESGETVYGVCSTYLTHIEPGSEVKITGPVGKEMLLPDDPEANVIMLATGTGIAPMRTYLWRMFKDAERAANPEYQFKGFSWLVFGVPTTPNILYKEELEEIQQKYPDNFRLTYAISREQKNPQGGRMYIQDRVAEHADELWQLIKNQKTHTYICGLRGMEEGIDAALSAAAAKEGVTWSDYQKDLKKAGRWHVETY
Description: We finally assessed the selectivity of our XccFPR inhibitors by testing the diaphorase activity of the plastidic Anabaena PCC 7119 FNR (AnFNR) at increasing concentrations of D2, D5 and D8 (Table 3).
as §2

[6] = target: T1, XccFPR; test: Thermal stability of XccFPR, midpoint temperature for flavin release (TmFAD); assay type: binding, Xanthomonas citri subsp. citri; conditions: 4 µM XccFPR
From the text: The increase in fluorescence of the FAD cofactor when dissociated from the protein upon thermal unfolding was used to evaluate XccFPR stability under different conditions and to assess related midpoint temperature for flavin release (TmFAD). Fluorescence thermal denaturation curves were monitored on 96-well plates using a Stratagene Mx3005P qPCR detection system (Agilent Technologies Inc., Santa Clara, CA, USA). A FAM filter set (λexc = 492 nm; λem = 516 nm), which overlaps the fluorescence spectrum of the isoalloxazine ring was used to evaluate XccFPR midpoint temperature for flavin release (TmFAD) when free or in the presence of selected compounds. Measurements were performed using 4 µM protein in 50 mM Tris/HCl, pH 8.0 in a 100 µL final volume. Each measurement was done in triplicate.

[7] = target: T1, XccFPR; test: Steady-state kinetic parameters of XccFPR NADPH-dependent DCPIP diaphorase activity; assay type: biochemical, Xanthomonas citri subsp. citri
Description: When assayed in regular cuvettes, the DCPIP diaphorase activity of XccFPR was determined at 25 °C using a Cary 100 (Agilent Technologies Inc., Santa Clara, CA, USA) spectrophotometer as previously established. […] Positive controls (without any hit compound) were included in every reaction set. […] All kinetic experiments were performed in triplicate. The effect of the inhibitors on Km and kcat was determined by fitting the datasets to the Michaelis-Menten model. Additionally, data were globally fit to either Lineweaver-Burk equations for uncompetitive or non-competitive inhibition, yielding Ki for each compound (Equations (1) and (2), respectively).

[8] = target: T1, XccFPR; conditions: ferricyanide as electron acceptor; cited from earlier work
[9] = 25 °C, 2% DMSO, pH 8.0, 20 nM XccFPR, 95 µM DCPIP, 50 μM NADPH
[10] = compound 1 mM, NADP+ 50 µM, DMSO 2 %
[11] = compound 2 mM, NADP+ 50 µM, DMSO 2 %

CSc1sc(NC(=O)Nc2ccc(F)c(Cl)c2)c(-c2ccc(Cl)cc2)c1C#N [C12, 1-(3-chloro-4-fluorophenyl)-3-[3-(4-chlorophenyl)-4-cyano-5-(methylsulfanyl)thiophen-2-yl]urea]
growth inhibition in liquid medium (bacterial viability) [1]: decrease of bacterial viability | Xcc growth inhibition on solid SB medium ([2]; 2 µL of 10, 100 and 1000 µM solutions): inhibited Xcc growth at all concentrations assayed | lowest concentration assayed that inhibited Xcc growth ([2]; solid SB medium): 10 µM | Ki [3]: 4.2 ± 0.9 µM | Inhibition Mechanism [3]: Non-competitive | IC50 [4]: 7.7 ± 1 µM

Cc1c(S(=O)(=O)c2ccc(Cl)cc2)csc1C(=O)Nc1ccc(F)cc1F [D8, 4-(4-chlorobenzenesulfonyl)-N-(2,4-difluorophenyl)-3-methylthiophene-2-carboxamide]
IC50 [5]: 122 ± 1 µM | ICmax (concentration causing maximal inhibition) [5]: >350 µM | % Inhibition at ICmax [5]: ~73% | Ki [3]: 62 ± 19 µM | Inhibition Mechanism [3]: Non-competitive | IC50 [4]: 38 ± 1 µM | inhibitory effect on XccFPR (in words) [4]: moderate IC50 but high concentrations were required to abolish XccFPR activity | % Inhibition at ICmax [4, 9]: 100 ± 1%

O=C(Nc1ccc(Cl)cc1)Nc1nnc(SCc2ccc(Cl)cc2)s1 [D5, 1-[5-(4-Chloro-benzylsulfanyl)-[1,3,4]thiadiazol-2-yl]-3-(4-chloro-phenyl)-urea]
IC50 [5]: 102 ± 1 µM | ICmax (concentration causing maximal inhibition) [5]: >300 µM | % Inhibition at ICmax [5]: ~47% | Ki [3]: 4.3 ± 1.1 µM | Inhibition Mechanism [3]: Non-competitive | IC50 [4]: 6.6 ± 1.1 µM | % Inhibition at ICmax [4, 9]: 100 ± 2% | TmFAD ([6]; compound 1 mM, DMSO 2 %): 41.4 ± 0.1 °C | ΔTmFAD ([6]; compound 1 mM, DMSO 2 %): 0.4±0.2 °C | TmFAD [6, 10]: 46.9 ± 0.1 °C | ΔTmFAD [6, 10]: 5.9±0.2 °C

CSc1sc(NC(=O)Nc2cccc(C(F)(F)F)c2)cc1C#N [D2]
IC50 [5]: 27 ± 1 µM | ICmax (concentration causing maximal inhibition) [5]: 100 ± 2 µM | % Inhibition at ICmax [5]: 99 ± 11% | Ki [3]: 28 ± 2 µM | Inhibition Mechanism [3]: uncompetitive inhibitor | ICmax (concentration causing maximal inhibition) ([4]; 25 °C, 50 mM Tris/HCl, 2% DMSO, pH 8.0, 20 nM XccFPR, 95 µM DCPIP, 50 μM NADPH): 175 ± 1 µM | IC50 ([4]; 25 °C, 50 mM Tris/HCl, 2% DMSO, pH 8.0, 20 nM XccFPR, 95 µM DCPIP, 50 μM NADPH, compound 0–800 μM): 26 ± 1 µM | inhibitory effect on XccFPR (in words) [4]: moderate IC50 but high concentrations were required to abolish XccFPR activity | % Inhibition at ICmax [4, 9]: 100 ± 1% | TmFAD ([6]; compound 2 mM, DMSO 2 %): 41.7 ± 0.1 °C | ΔTmFAD ([6]; compound 2 mM, DMSO 2 %): 0.7±0.2 °C | TmFAD [6, 11]: 46.0 ± 0.1 °C | ΔTmFAD [6, 11]: 5.0±0.2 °C

C[S+](C)[O-] [DMSO]
effect of solvent on XccFPR enzyme activity ([7]; DMSO below 3%): did not modify the kinetic parameters | effect of solvent on XccFPR enzyme activity ([7]; DMSO percentages larger than 3%): decreased the maximal rate constant | ΔTmFAD ([6]; DMSO 2 %): -0.4±0.2 °C | TmFAD ([6]; DMSO 2 %, 50 mM Tris/HCl): 40.6 ± 0.1 °C | TmFAD ([6]; DMSO 5 %): 39.0 ± 0.1 °C | TmFAD ([6]; DMSO 10 %): 37.7 ± 0.1 °C

NC(=O)c1ccc[n+]([C@@H]2O[C@H](COP(=O)([O-])OP(=O)(O)OC[C@H]3O[C@@H](n4cnc5c(N)ncnc54)[C@H](OP(=O)(O)O)[C@@H]3O)[C@@H](O)[C@H]2O)c1 [NADP^+]
TmFAD ([6]; NADP+ 50 µM, DMSO 2 %): 46.7 ± 0.1 °C | ΔTmFAD ([6]; NADP+ 50 µM, DMSO 2 %): 5.7±0.2 °C | TmFAD ([6]; NADP+ 50 µM, no DMSO): 47.2 ± 0.1 °C | ΔTmFAD ([6]; NADP+ 50 µM, no DMSO): 6.2±0.2 °C

NC(=O)C1=CN([C@@H]2O[C@H](COP(=O)(O)OP(=O)(O)OC[C@H]3O[C@@H](n4cnc5c(N)ncnc54)[C@H](OP(=O)(O)O)[C@@H]3O)[C@@H](O)[C@H]2O)C=CC1 [NADPH, reference compound]
kcat [8]: 122 ± 18 s⁻¹ | kcat ([7]; NADPH-dependent DCPIP diaphorase activity, 25 °C, pH 8.0): 22.6 ± 2.3 s⁻¹ | Km ([7]; read-out: Km^NADPH, DCPIP as electron acceptor, 25 °C, pH 8.0): 6.6 ± 1.1 µM
